Data from publication PMC10720262, “Molecular determinants of cross-reactivity and potency by VH3-33 antibodies against the Plasmodium falciparum circumsporozoite protein” (Cell Reports, 2023).
Read-outs that look alike come from different tables or passages of the source.

Columns and labels:
KQPA peptide ([…]) [1] = test: Peptide ELISA (AUC), KQPA; assay type: binding, Plasmodium falciparum
Experimental: (§1) With the exception of NANP6, all other peptides were acetylated at N-termini and amidated at C-termini. NANP6 contained an N-terminal biotin-aminohexanoic acid tag and an unmodified C terminus.
(§2) Antigen ELISAs were performed as previously described.[21]^,[25] In brief, high-binding 384-well polystyrene plates (Corning) were coated overnight at 4°C with 2 μg/mL of the indicated peptides synthesized at PSL, Heidelberg. Plates were washed three times with 0.05% Tween 20 in PBS, blocked with 50 μL of 1% BSA in PBS for 1 h at room temperature (RT), and washed again. For analysis of mAbs, 15 μL/well of serially diluted mAbs (starting concentration 1.0 μg/mL, 1 in 4 dilution for 4 steps) were incubated for 2 h at RT. Wells were washed six times and incubated with goat anti-human IgG-HRP at a 1:1000 dilution (Jackson ImmunoResearch) in PBS with 1% BSA for 1 h. Wells were washed again and one-step ABTS substrate (RT, 20 μL/well; Roche) and 1× KPL ABTS peroxidase stop solution (RT, 20 μL/well; SeraCare Life Sciences) were used for detection. Area under the ELISA curve (AUC) was calculated using GraphPad Prism 7.04 (GraphPad).

NANP3 peptide ([…]) [2] = test: Peptide ELISA (AUC), NANP3; assay type: binding, Plasmodium falciparum
Experimental: as §1, §2

NDN peptide ([…]) = test: Peptide ELISA (AUC), NDN; assay type: binding, Plasmodium falciparum
Experimental: as §1, §2

DND peptide ([…]) [3] = test: Peptide ELISA (AUC), DND; assay type: binding, Plasmodium falciparum; conditions: ELISA Area Under the Curve
Experimental: as §1, §2

NANP3 peptide ([…]) [4] = test: SPR (Biacore T200), NANP3 peptide; assay type: binding, Plasmodium falciparum
Experimental: as §1
(§3) Affinity of 56 VH3-33 mAbs to DND and NANP3 peptides were measured using SPR in Biacore Cytiva T200, as described before.[21] In brief, series S sensor chip CM5 (GE Healthcare) was docked in the instrument and 10 mM HEPES (pH 7.4) containing 200 mM NaCl, 0.02% Tween 20 and 0.05% BSA was used as running buffer. Anti-human IgG from human antibody capture kit (GE Healthcare) was immobilized in both flow cells through amine coupling following manufacturer’s instructions. […] Upon stabilizing flow cells with running buffer for 20 min, indicated peptides synthesized at PSL Heidelberg were injected at 0, 0.015, 0.09, 0.55, 3.3 and 20 μM concentration at a flow rate of 30 μL/min. Association and dissociation of the peptides were measured at 25°C for 60 s and 180 s, respectively. 3M MgCl2 was used for the regeneration of both flow cells. 1:1 binding model or steady-state kinetic analysis in the Biacore T200 software V2.0 was used for fitting the data and obtaining kinetic rates and constant.

DND peptide ([…]) [5] = test: SPR (Biacore T200), DND peptide; assay type: binding, Plasmodium falciparum
Experimental: as §1, §3

[6] = system: Pf sporozoites (traversal of HC-04 cells); test: In vitro sporozoite traversal assay; assay type: cell-based, Plasmodium falciparum; conditions: Pf NF54 sporozoites pre-incubated with diluted IgG 30 min, rhodamine dextran, 1 h at 37°C, high content imaging
Experimental: Pf NF54 asexual and sexual blood stage parasites were cultured in a semi-automated culture system as described by Ponnudurai.[69]^,[70] Sporozoites were produced by feeding Anopheles stephensi mosquitos (Sind-Kasur Nijmegen strain) using standard membrane feeding of cultured gametocytes, as was described by Feldmann.[71] Salivary glands were dissected, collected in Leibovitz L15 medium supplemented with 1% PenStrep and homogenized in a homemade glass grinder. Sporozoites were counted in a Bürker-Türk counting chamber using phase-contrast microscopy.
Human hepatoma (HC-04) cells were seeded in microtiter plates and grown to near confluence. Fresh P. falciparum salivary gland sporozoites[56] were isolated from Anopheles stephensi mosquitoes and pre-incubated with diluted IgG for 30 min before adding rhodamine dextran. Following incubation for 1 h at 37°C, cell nuclei were stained with DAPI. Fluorescence levels of traversed cells were quantitated using a high content automated imager.

KQPA peptide ([…]) [7] = test: SPR (Carterra LSA), KQPA peptide; assay type: binding, Plasmodium falciparum; conditions: mAb immobilized on CMD200M chip, peptide 2-fold series, top 8 μg/mL (5.03 μM), 1X HBSTE pH 7.4, 25°C, 1:1 Langmuir model, mean of best triplicate
Description: (§4) Synthetic peptides were custom made by Peptide Speciality Laboratory (PSL), Heidelberg (KQPA ([…]), NPDP ([…]), DND ([…]), NDN ([…]) and NANP3 ([…])), CPC Scientific (NPNA3 ([…]), NANP6 ([…]), KQPA, NPDP and NVDP ([…])) or GenScript (KQPA, NPDP, NANP3, NDN, DND, and NANP5 ([…])). With the exception of NANP6, all other peptides were acetylated at N-termini and amidated at C-termini. NANP6 contained an N-terminal biotin-aminohexanoic acid tag and an unmodified C terminus.
(§5) In each assay, a single analyte peptide antigen (KQPA, NPDP, NVDP, NPNA3 or NANP6) was titrated against the immobilized mAbs. Using 10 mM MES buffer at pH 5.5 with 0.01% Tween 20 as running buffer, the chip was first activated by N-Hydroxysuccinimide (NHS) and 1-Ethyl-3-(3-dimethylaminopropyl) carbodiimide hydrochloride (EDC). Then, PfCSP-specific mAbs were directly immobilized (in 10 mM sodium acetate at pH 4.5) at 10 μg/mL or 5 μg/mL concentrations for 600 s, followed by quenching of unreactive esters using 1 M ethanolamine-HCl at pH 8.5. […]
(§6) The kinetics titration data collected were first pre-processed in the Kinetics (Carterra) software, including reference subtraction, buffer subtraction and data smoothing. The data were then exported and analyzed using the TitrationAnalysis tool developed in-house.[58] […] For antigens with multiple repeats of epitopes, the KD values determined includes avidity effect.

[8] = biological target: recombinant full-length PfCSP (strain NF54); test: Biolayer interferometry (BLI) binding to recombinant PfCSP; design: species or system Plasmodium falciparum; conditions: Octet RED96, His-tagged PfCSP 10 μg/mL on Ni-NTA biosensors, 2-fold dilutions of mAb in PBS pH 7.4/0.01% BSA/0.002% Tween 20, 1:1 binding model
Experimental: The resulting plasmid was transfected into FreeStyle HEK293F cells and GFP fluorescence was used to select for single cells via FACS. The selected single cell was expanded and cultured in GIBCO Freestyle 293 Expression Medium and maintained with 200 μg/mL of geneticin (G418 solution; Invivogen). Protein expression was enabled by subculturing the stable cells without antibiotic to a density of 8 x 10^5 cells/mL and harvested after 5–7 days.
After a steady baseline was established, biosensors were dipped into wells containing 2-fold dilutions of each mAb in kinetics buffer. Tips were then immersed back into kinetics buffer for measurement of the dissociation rate. Kinetics data were analyzed using the FortéBio’s Octet Data Analysis software 9.0.0.6, and curves were fitted to a 1:1 binding model.

NPDP peptide ([…]) [9] = test: SPR (Carterra LSA), NPDP peptide; assay type: binding, Plasmodium falciparum; conditions: mAb immobilized on CMD200M chip, peptide 2-fold series, top 8 μg/mL ([…]), 1X HBSTE pH 7.4, 25°C, 1:1 Langmuir model, mean of best triplicate
Description: as §4, §5, §6

[10] = system: transgenic Plasmodium berghei sporozoites expressing PfCSP (PbPfCSP); test: Liver burden reduction assay; assay type: in vivo, Plasmodium berghei in C57BL/6 mice; conditions: C57BL/6 mice, 100 μg mAb i.v., 16 h later 2,000 PbPfCSP sporozoites i.v., bioluminescence 42 h after challenge; relative to naive mice; n=5
Description: P. berghei transgenic parasites expressing PfCSP, GFP and luciferase were generated as previously described.[57] Briefly, P. berghei, strain ANKA 676m1c11, which expresses GFP and luciferase were obtained from MR4 (ATCC). Parasites were transfected to replace the CSP gene with a modified gene consisting of the CSP of Pf. To obtain sporozoites, Anopheles stephensi mosquitos were fed on mice infected with the parasite. 19–22 days later salivary glands from the infected mosquitos were obtained and sporozoites were isolated to infect mice.
Parasite challenge to measure liver burden was assessed as previously described.[57] Briefly, 6-8-week-old C57BL/6 female mice were injected intravenously with 100 μg of the respective mAb. Mice were challenged 16 h later with 2,000 PfCSP-expressing transgenic Pb sporozoites delivered i.v. in HBSS-2% FBS. Mice were injected intraperitoneally with 100 μL of D-luciferin at 30 mg/mL 42 h after sporozoite challenge, anesthetized with isoflurane and imaged in the IVIS Spectrum Imaging System to measure the bioluminescence expressed by the transgenic parasite.

NPNA3 peptide ([…]) = test: SPR (Carterra LSA), NPNA3 peptide; assay type: binding, Plasmodium falciparum; conditions: mAb immobilized on CMD200M chip, peptide 2-fold series, top 8 μg/mL (6.41 μM), 1X HBSTE pH 7.4, 25°C, 1:1 Langmuir model, mean of best triplicate
Description: as §4, §5, §6

NANP6 peptide ([…]) = test: SPR (Carterra LSA), NANP6 peptide; assay type: binding, Plasmodium falciparum; conditions: mAb immobilized on CMD200M chip, peptide 2-fold series, top 8 μg/mL (2.92 μM), 1X HBSTE pH 7.4, 25°C, 1:1 Langmuir model, mean of best triplicate, KD includes avidity effect for antigens with multiple repeats of epitopes
Description: as §4, §5, §6

NPDP peptide ([…]) [11] = test: Peptide ELISA (AUC), NPDP; assay type: binding, Plasmodium falciparum; conditions: plates coated with 2 μg/mL peptide; mAb from 1.0 μg/mL, 1 in 4 dilution, 4 steps; area under ELISA curve; mean of three independent experiments
Experimental: as §1, §2

[12] = plates coated with 2 μg/mL peptide, mAb from 1.0 μg/mL, 1 in 4 dilution, 4 steps, area under ELISA curve, mean of three independent experiments

**Q.** How did the “KQPA AUC” value (KQPA peptide ([…]) [1]; ELISA Area Under the Curve, KQPA peptide) turn out when “QVQLVESGGGVVQPGGSLRLSCAASGFTFSGSGMHWVRHAPGKGLEWVAIIWYDGSNKFYADSVKGRFTISRDNSRNTLYLQMNSLRAEDTAVYYCARAYVSGNYGDKYGMDVWGQGTTVTVSS [CL-532151]” was run?
**A.** Its value is 1.36.

**Q.** What about the “NANP3 AUC” value (NANP3 peptide ([…]) [2]; ELISA Area Under the Curve, NANP3 peptide) of the same substance?
**A.** The value was 1.84.

**Q.** And the “NDN AUC” value (NDN peptide ([…]); ELISA Area Under the Curve, NDN peptide)?
**A.** Its value is 0.29.

**Q.** And the “DND AUC” value (DND peptide ([…]) [3])?
**A.** The value was 2.23.

**Q.** “LVQLVESGGGVVQPGRSLRLSCAASGFTFSSSGMHWVRQAPGKGLEWVAIIWYDGSNKFYADSVKGRFTISRDNSKNTLYLQMNSLRAEDTAVYYCARAYVSGSHGDKYGMDVWGQGTTVTVSS [CL-531912]” was tested. Which Kd (NANP3 peptide ([…]) [4]; SPR, NANP3 peptide, read-out: NANP3 KD) did it give?
**A.** The Kd was 55 nM.

**Q.** Which “NANP3 KD (M)” value (NANP3 peptide ([…]) [4]; SPR, NANP3 peptide) does the source give for “QIQLVESGGGVVQPGRSLRLSCAASGFTFSTYGMHWVRQAPGKGLEWVAVIWYDGSNKYYADSVQGRFTISRDNSKNTLYLQMNSLRAEDTAIYYCTTVGPIPFDYWGQGTLVTVSS [CL-514716]” here?
**A.** The value was “Non-binder”.

**Q.** What about the “DND KD (M)” value (DND peptide ([…]) [5]) of the same substance?
**A.** The value was “Non-binder”.

**Q.** For “Ky311: VH3-33/Vk3-11 anti-PfCSP mAb from Kymouse platform, expressed as human IgG1; MGG4-like binding mode”, which “Traversal Inhibition IC50” value [6] is on record?
**A.** The value was 0.664 µg/mL.

**Q.** What about the Kd (KQPA peptide ([…]) [7]) of the same substance?
**A.** Its Kd is 427 nM.

**Q.** What about the Kd [8] of the same substance?
**A.** The Kd was 7.39 nM.

**Q.** What about the Kd (NPDP peptide ([…]) [9]) of the same substance?
**A.** The Kd was 3.75 nM.

**Q.** And the “Liver Burden Assay Reduction” value [10]?
**A.** The value was 75%.

**Q.** And the Kd (NPNA3 peptide ([…]))?
**A.** Its Kd is 1.07 nM.

**Q.** What does the source list for “mAb CIS43: previously characterized NPDP-specific human anti-PfCSP mAb (IGHV1-3) [reference compound]”?
**A.** Kd (NANP3 peptide ([…]) [4]; Biacore T200, mAb captured via anti-human IgG on CM5, peptide 0-20 μM, 25°C, 1:1 binding model or steady-state analysis, single measurement for sample mAbs, three independent measurements for previously characterized mAbs, read-out: SPR NANP3 KD): 1720 nM; Kd (NANP6 peptide ([…])): 54.9 nM; Traversal Inhibition IC50 [6]: 0.362 µg/mL; ELISA AUC KQPA (KQPA peptide ([…]) [1]; [12]): 0.10; SPR KQPA KD (KQPA peptide ([…]) [7]): Non-binder; Kd [8]: 15.6 nM; ELISA AUC NANP3 (NANP3 peptide ([…]) [2]; [12]): 0.20; Kd (NPDP peptide ([…]) [9]): 19.1 nM; ELISA AUC NDN (NDN peptide ([…]); [12]): 0.20; ELISA AUC NPDP (NPDP peptide ([…]) [11]): 1.50; Kd (NPNA3 peptide ([…])): 9430 nM
